Test results: patent US20140106387A1, “METHOD FOR CONTROLLING NAD(P)/NAD(P)H RATIO BY OXIDOREDUCTASE” (MD BIOALPHA CO., LTD., priority 2006, published 2014)

Legend:
[1] = glucose tolerance and insulin sensitivity in OLETF rats; format: in vivo, rat; conditions: Days 3 and 21 after treatment
Experimental: Glucose tolerance test (GTT) was carried out for 12 h-fasted mice by a known method. As described above, 12 h-fasted mice received an insulin stimulation test
FIG. 45 is a graph showing glucose tolerance and insulin sensitivity measured in vehicle-treated ° LEIF rats and βL-treated OLETF rats. Glucose and insulin were i.p. and i.v. injected, respectively, and the blood glucose level was measured.

[2] = blood metabolic parameters in C57BL/6 DIO mice; format: in vivo, mouse
Experimental: O2 consumption of animals was recorded by a known method. For indirect calorimetry, mice were individually housed in calorimetry chambers (Oxymax OPTO-M3 system; Columbus Instruments, Columbus, Ohio). Animals were allowed to acclimate to a new environment for 48 hours prior to the experiment, and amounts of O2 consumption and CO2 production were measured for […] every 30 minutes. Mice were given free access to food and drinking water during the first 24 h period, and animals were given access to drinking water only during the second 24 h period. Blood samples were taken from a heparinized tube, immediately placed on ice, centrifuged and stored at −20[…] for future use. Enzymatic colorimetry was employed for quantification of triglyceride (TG), total cholesterol, free fatty acids, and glucose (Beckman Instruments, CA). Plasma insulin (Linco Research, MO), TNFα (R&D System), adiponectin (Linco Research, MO), resistin (KOMED) and leptin (Linco Research, MO) were quantified by ELISA.

AMPK = AMPK kinase assay in mouse tissues; format: in vivo
[3] = swimming test of physical endurance; format: in vivo, mouse; conditions: C57BL/6 DIO mice, single administration, 3 hours later
Experimental: This Example was intended to measure a difference in physical endurance of mice through a swimming test. For this purpose, water was placed in a cylindrical trough having a diameter of 9.5 cm and a height of 25 cm, and pyrano-1,2-naphthoquinone was administered to C57BL/6 DIO mice. 3 hours later, a sample-administered group and a control group were placed simultaneously into each cylindrical trough for measurement, and physical endurance of each group was measured and compared.

ACC, CPT, HAD = test: enzyme assays, malonyl-CoA content and fatty acid oxidation in DIO mice; format: in vivo, mouse
Experimental: For Enzyme assays, cytoplasm was extracted from mouse tissues. Dicoumarol-sensitive NQO1 activity was determined by a conventional method known in the art: This method is based on an absorbance decrease at 600 nm due to bioreduction of DCPIP. Total AMPK activity was determined with a known method using synthetic “SAMS” peptides and [γ-^32P] ATP. ACC activity was determined by quantifying fixation of ^14CO2 to the acid-stable product in the presence/absence of citrate (2 mM) as an allosteric activator of ACC. CPT (carnitine palmitoyl transferase) activity was measured in L6 myoblasts and soleus muscle by a known method. HAD (3-hydroxyacyl-CoA dehydrogenase) activity was determined in L6 myoblasts and soleus muscle by monitoring conversion of acetoacetyl-CoA into L-3-hydroxybutyryl CoA and the concomitant oxidation of NADH into NAD^+. The reaction was monitored at 340 nm by a known method.
[^14C]palmitoyl-CoA (Perkin Elmer) oxidation was determined in L6 myoblasts and soleus muscle by a known method using labeled CO2 and 0.2 mL of benzethonium chloride solution.
Contents of Malonyl-CoA were determined by a known method, e.g. HPLC. Acyl-CoA esters were separated by HPLC using 0.2 M ammonium acetate-containing acetonitrile/water (1.75:98.25). Samples were washed with 20 min, and subjected to 100 min linear gradient elution from acetonitrile/water (10:90) containing 0.2 M ammonium acetate.
That is, such facts mean that chronic treatment of βL can accelerate mitochondrial oxidative phosphorylation and enhance adaptive mitochondrial biogenesis. Therefore, βL can be used as a therapeutic agent for metabolic diseases.

cardiomyocytes = test: mitochondrial membrane potential (TMRE fluorescence) in cardiomyocytes; format: cell-based
Experimental: For determination of the inner mitochondrial membrane potential (ΔΨm), 20 nM of TMRE (tetramethylrhodamine ethyl ester) as a fluorescent indicator was continuously applied to be loaded on cells. In order to monitor mitochondrial Ca^2+, cells on glass coverslips were loaded with 10 μM Rhod-2 AM via cold loading/warm incubation. In order to monitor cytosolic Ca^2+, cells were co-loaded with 10 μM Fluo-4 AM at 37′C for 30 min. The cells were washed twice with a KB solution, and mounted in a perfusion chamber. Fluorescent imaging was taken using a confocal laser scanning microscope (LSM-510 META, Carl Zeiss) at a magnification of ×200 and ×400, in conjunction with appropriate laser lines and a filter set. Image analysis was carried out using LSM-510 META software (Zeiss). Images for TMRE (red fluorescence), Rhod-2 (red fluorescence) and Fluo-4 (green fluorescence) were obtained using an inverted Zeiss 510META laser-scanning confocal microscope equipped with ×63 numerical aperture, 1.4 oil-immersion planapochromat lens. Green fluorescence and red fluorescence were illuminated with light of 488 nm and 543 nm. Incident light was passed through a 545 nm dichroic mirror and observed via a 500 to 530 nm band-pass (green) filter and a 560 nm long-pass (red) barrier filter.
However, such effects were not observed in HEK293 cells. […]

HepG2 cells = test: calcium influx (Fluo-4) in HepG2 cells; format: cell-based, human
Experimental: Cells were grown on a coverslip in a culture medium for 24 hours, maintained in an RPMI 1640 serum-free medium for 1 hour, and pretreated with a calcium indicator Fluo-4 (5 μM) for 30 min. After pretreatment, the coverslip was mounted on a slide glass. Changes in an intracellular calcium concentration were observed using a fluorescence microscope (Carl Zeiss) for 30 sec, and cells were treated with a candidate compound (e.g. pyran-1,2-naphthoquinone) simultaneously with consecutive imaging of calcium changes using a fluorescence microscope (Carl Zeiss) for 2 sec. […] Changes in the intracellular calcium concentration were observed using a fluorescence microscope (Carl Zeiss) for 30 sec, and cells were treated with pyre-1,2-naphthoquinone (10 μM), followed by continuous shooting of calcium changes using a fluorescence microscope for 2 sec. Using an LSM Image Browser program (Carl Zeiss), 300 images taken for 10 min every 2 seconds were sorted and ordered in a time sequence and plotted on a graph.
For determination of the inner mitochondrial membrane potential (ΔΨm), 20 nM of TMRE (tetramethylrhodamine ethyl ester) as a fluorescent indicator was continuously applied to be loaded on cells. In order to monitor mitochondrial Ca^2+, cells on glass coverslips were loaded with 10 μM Rhod-2 AM via cold loading/warm incubation. In order to monitor cytosolic Ca^2+, cells were co-loaded with 10 μM Fluo-4 AM at 37′C for 30 min. […] Images for TMRE (red fluorescence), Rhod-2 (red fluorescence) and Fluo-4 (green fluorescence) were obtained using an inverted Zeiss 510META laser-scanning confocal microscope equipped with ×63 numerical aperture, 1.4 oil-immersion planapochromat lens. Green fluorescence and red fluorescence were illuminated with light of 488 nm and 543 nm. […]
Cells were cultured for 24 hours and then pre-treated with Fluo-4 for 30 min. Cells immobilized on a coverslip were transferred to a slide glass and treated with pyrano-1,2-naphthoquinone (10 μM), and at the same time images were taken every 2 seconds for 10 min using a fluorescence microscope.

[4] = DIO mice, oral 50 mg/kg, data not shown
[5] = muscle of DIO mice vs control group

Structure (SMILES): CC1(C)CCC2=C(O1)c1ccccc1C(=O)C2=O [βL, 2,2-Dimethyl-3,4-dihydro-2H-benzo[h]chromene-5,6-dione]
- glucose tolerance and insulin sensitivity [1]: improvements in glucose tolerance and insulin sensitivity
- blood level of resistin ([2]; 50 mg/kg daily oral): significantly improved
- insulin resistance and leptin resistance ([2]; 50 mg/kg daily oral): improved
- blood fat and glucose levels ([2]; Days 3, 7, 14, 28 and 56, 50 mg/kg daily oral): significantly improved
- AMPK activity in the liver and gonadal adipose tissues (AMPK; C57BL/6 mice, 5 mg/kg tail vein, 2 hours and 4 hours): increased AMPK activity
- AMPK activity in liver, EDL and soleus muscle vs vehicle-treated control (AMPK; DIO mice, oral 50 mg/kg): higher
- duration of oral administration effect on AMPK activity (AMPK; [4]): about 6 hours
- time of maximum oral administration effect on AMPK activity (AMPK; [4]): 2 h
- increase of swimming duration compared to control [3]: two-fold
- 14C-palmitoyl CoA β-oxidation (ACC, CPT, HAD; [5]): significantly increased
- CPT activity (ACC, CPT, HAD; [5]): significantly increased
- HAD activity (ACC, CPT, HAD; [5]): significantly increased
- ACC activity (ACC, CPT, HAD; βL-treated DIO mice): decreased
- malonyl CoA level (ACC, CPT, HAD; βL-treated DIO mice): decreased
- decrease of TMRE fluorescence (cardiomyocytes): about 20%
- cytosolic Ca2+ concentration ([Ca2+]c) and mitochondrial Ca2+ concentration ([Ca2+]m) (HepG2 cells; Fluo4 and Rhod-2-AM fluorescence, cells not given): increases
- time of calcium peak after treatment (HepG2 cells; HepG2, 10 μM): about 10 sec
